{
  "source": "paper PMC4303209",
  "about": "“A novel phosphatidylinositol 3-kinase (PI3K) inhibitor directs a potent FOXO-dependent, p53-independent cell cycle arrest phenotype characterized by the differential induction of a subset of FOXO-regulated genes” (Breast Cancer Research : BCR, 2014)",
  "test_system": "MCF-7 breast cancer cells",
  "experiment": "Microarray gene expression analysis (Agilent whole human genome 4 x 44K; compound vs DMSO, LIMMA log2 fold change)",
  "assay_type": "cell-based",
  "data": [
    {"molecule": "Cn1ncc2c(N3CCOCC3)nc(-c3cccc(O)c3)nc21", "note": "[ETP-45658]", "values": [
      {"measurement": "EYA1 log2FC", "setting": "gene EYA1 (2138), apoptosis genes", "value": 0.012},
      {"measurement": "log2FC EYA1", "setting": "gene EYA1 (Gene 2138), cell cycle genes", "value": 0.012},
      {"measurement": "FABP1 log2FC", "setting": "gene FABP1 (2168), apoptosis genes", "value": 0.009},
      {"measurement": "FAIM2 log2FC", "setting": "gene FAIM2 (23017), apoptosis genes", "value": -0.062},
      {"measurement": "FAM3B log2FC", "setting": "gene FAM3B (54097), apoptosis genes", "value": -0.028},
      {"measurement": "FAM32A log2FC", "setting": "gene FAM32A (26017), apoptosis genes", "value": -0.032},
      {"measurement": "log2FC FAM32A", "setting": "gene FAM32A (Gene 26017), cell cycle genes", "value": -0.032},
      {"measurement": "log2FC", "setting": "gene FAM58A (Gene 92002), cell cycle genes", "value": 0.217},
      {"measurement": "FAS log2FC", "setting": "gene FAS (355), apoptosis genes", "value": -0.032},
      {"measurement": "log2FC", "setting": "gene FBXL15 (Gene 79176), cell cycle genes", "value": 0.209},
      {"measurement": "log2FC FGFR1OP", "setting": "gene FGFR1OP (Gene 11116), cell cycle genes", "value": -0.035},
      {"measurement": "FIS1 log2FC", "setting": "gene FIS1 (51024), apoptosis genes", "value": -0.018},
      {"measurement": "FKSG2 log2FC", "setting": "gene FKSG2 (59347), apoptosis genes", "value": 0.133},
      {"measurement": "log2FC", "setting": "gene FMN2 (Gene 56776), cell cycle genes", "value": 0.105},
      {"measurement": "FOXB1 log2FC", "setting": "gene FOXB1 (27023), apoptosis genes", "value": -0.340},
      {"measurement": "log2FC", "setting": "gene FSD1 (Gene 79187), cell cycle genes", "value": -0.401},
      {"measurement": "GADD45G log2FC", "setting": "gene GADD45G (10912), apoptosis genes", "value": -0.067},
      {"measurement": "GAPDH log2FC", "setting": "gene GAPDH (2597), apoptosis genes", "value": -0.037},
      {"measurement": "log2FC", "setting": "gene GAS2L1 (Gene 10634), cell cycle genes", "value": -0.313},
      {"measurement": "log2FC GAS2L2", "setting": "gene GAS2L2 (Gene 246176), cell cycle genes", "value": -0.00355},
      {"measurement": "GAS6 log2FC", "setting": "gene GAS6 (2621), apoptosis genes", "value": -0.052},
      {"measurement": "GATA6 log2FC", "setting": "gene GATA6 (2627), apoptosis genes", "value": -0.019},
      {"measurement": "log2FC GATA6", "setting": "gene GATA6 (Gene 2627), cell cycle genes", "value": -0.019},
      {"measurement": "GCG log2FC", "setting": "gene GCG (2641), apoptosis genes", "value": 0.020},
      {"measurement": "GCLM log2FC", "setting": "gene GCLM (2730), apoptosis genes", "value": -0.092},
      {"measurement": "GCM2 log2FC", "setting": "gene GCM2 (9247), apoptosis genes", "value": -0.015},
      {"measurement": "log2FC", "setting": "gene GEM (Gene 2669), cell cycle genes", "value": 0.406},
      {"measurement": "GFRAL log2FC", "setting": "gene GFRAL (389400), apoptosis genes", "value": 0.017},
      {"measurement": "GHRL log2FC", "setting": "gene GHRL (51738), apoptosis genes", "value": -0.012},
      {"measurement": "GIMAP5 log2FC", "setting": "gene GIMAP5 (55340), apoptosis genes", "value": 0.026},
      {"measurement": "GJB6 log2FC", "setting": "gene GJB6 (10804), apoptosis genes", "value": -0.056},
      {"measurement": "log2FC", "setting": "gene GOLGA2 (Gene 2801), cell cycle genes", "value": 0.210},
      {"measurement": "log2FC", "setting": "gene GORASP1 (Gene 64689), cell cycle genes", "value": 0.146},
      {"measurement": "log2FC", "setting": "gene GORASP2 (Gene 26003), cell cycle genes", "value": -0.256},
      {"measurement": "GPI log2FC", "setting": "gene GPI (2821), apoptosis genes", "value": -0.083},
      {"measurement": "GPR65 log2FC", "setting": "gene GPR65 (8477), apoptosis genes", "value": 0.021},
      {"measurement": "GRK1 log2FC", "setting": "gene GRK1 (6011), apoptosis genes", "value": -0.013},
      {"measurement": "log2FC", "setting": "gene GTPBP8 (Gene 29083), cell cycle genes", "value": 0.316},
      {"measurement": "log2FC", "setting": "gene GTSE1 (Gene 51512), cell cycle genes", "value": -0.374},
      {"measurement": "log2FC H1FOO", "setting": "gene H1FOO (Gene 132243), cell cycle genes", "value": 0.014},
      {"measurement": "HCLS1 log2FC", "setting": "gene HCLS1 (3059), apoptosis genes", "value": 0.022},
      {"measurement": "log2FC", "setting": "gene HELLS (Gene 3070), cell cycle genes", "value": 0.388},
      {"measurement": "HIPK3 log2FC", "setting": "gene HIPK3 (10114), apoptosis genes", "value": 0.006},
      {"measurement": "log2FC HORMAD2", "setting": "gene HORMAD2 (Gene 150280), cell cycle genes", "value": 0.014},
      {"measurement": "log2FC HPGD", "setting": "gene HPGD (Gene 3248), cell cycle genes", "value": 0.013},
      {"measurement": "HPN log2FC", "setting": "gene HPN (3249), apoptosis genes", "value": -0.022},
      {"measurement": "HTRA2 log2FC", "setting": "gene HTRA2 (27429), apoptosis genes", "value": 0.031},
      {"measurement": "log2FC HTRA2", "setting": "gene HTRA2 (Gene 27429), cell cycle genes", "value": 0.031},
      {"measurement": "IFI6 log2FC", "setting": "gene IFI6 (2537), apoptosis genes", "value": 0.041},
      {"measurement": "IFNA2 log2FC", "setting": "gene IFNA2 (3440), apoptosis genes", "value": -0.017},
      {"measurement": "IFNB1 log2FC", "setting": "gene IFNB1 (3456), apoptosis genes", "value": 0.00571},
      {"measurement": "IL1A log2FC", "setting": "gene IL1A (3552), apoptosis genes", "value": -0.044},
      {"measurement": "IL2RA log2FC", "setting": "gene IL2RA (3559), apoptosis genes", "value": -0.031},
      {"measurement": "IL2RB log2FC", "setting": "gene IL2RB (3560), apoptosis genes", "value": 0.014},
      {"measurement": "IL12A log2FC", "setting": "gene IL12A (3592), apoptosis genes", "value": 0.00544},
      {"measurement": "log2FC IL12A", "setting": "gene IL12A (Gene 3592), cell cycle genes", "value": 0.00544},
      {"measurement": "IL12B log2FC", "setting": "gene IL12B (3593), apoptosis genes", "value": -0.025},
      {"measurement": "IL17A log2FC", "setting": "gene IL17A (3605), apoptosis genes", "value": -0.016},
      {"measurement": "IL19 log2FC", "setting": "gene IL19 (29949), apoptosis genes", "value": -0.00458},
      {"measurement": "ILK log2FC", "setting": "gene ILK (3611), apoptosis genes", "value": -0.066},
      {"measurement": "log2FC ILKAP", "setting": "gene ILKAP (Gene 80895), cell cycle genes", "value": 0.002},
      {"measurement": "INSL6 log2FC", "setting": "gene INSL6 (11172), apoptosis genes", "value": 0.055},
      {"measurement": "ISL1 log2FC", "setting": "gene ISL1 (3670), apoptosis genes", "value": -0.036},
      {"measurement": "ITGA6 log2FC", "setting": "gene ITGA6 (3655), apoptosis genes", "value": -0.050},
      {"measurement": "ITGB2 log2FC", "setting": "gene ITGB2 (3689), apoptosis genes", "value": -0.075},
      {"measurement": "ITM2C log2FC", "setting": "gene ITM2C (81618), apoptosis genes", "value": -0.082},
      {"measurement": "log2FC KATNB1", "setting": "gene KATNB1 (Gene 10300), cell cycle genes", "value": 0.014},
      {"measurement": "log2FC KCNA5", "setting": "gene KCNA5 (Gene 3741), cell cycle genes", "value": -0.012},
      {"measurement": "KDR log2FC", "setting": "gene KDR (3791), apoptosis genes", "value": -0.026},
      {"measurement": "log2FC", "setting": "gene KIAA0101 (Gene 9768), cell cycle genes", "value": 0.294},
      {"measurement": "KIAA1324 log2FC", "setting": "gene KIAA1324 (57535), apoptosis genes", "value": -0.008},
      {"measurement": "log2FC KIF2B", "setting": "gene KIF2B (Gene 84643), cell cycle genes", "value": -0.018},
      {"measurement": "log2FC", "setting": "gene KIF13A (Gene 63971), cell cycle genes", "value": 0.190},
      {"measurement": "log2FC", "setting": "gene KIF23 (Gene 9493), cell cycle genes", "value": 0.530},
      {"measurement": "log2FC KIF25", "setting": "gene KIF25 (Gene 3834), cell cycle genes", "value": -0.013},
      {"measurement": "KLF4 log2FC", "setting": "gene KLF4 (9314), apoptosis genes", "value": -0.009},
      {"measurement": "KRT20 log2FC", "setting": "gene KRT20 (54474), apoptosis genes", "value": -0.037},
      {"measurement": "LALBA log2FC", "setting": "gene LALBA (3906), apoptosis genes", "value": 0.031}
    ]}
  ]
}
